Where two headings read alike, the source gives them in different places.
Assays:
Lepeophtheirus salmonis [1] = experiment: Immersion treatment of sea lice-challenged salmon in tanks, 1 or 6 weeks post challenge (Example 1); assay type: in vivo
Description: Eight flow-through treatment tanks each containing 15 fish were set up. The fish were Salmon (Salmo salar) having an average weight of approximately 270 g and of mixed sex. Egg strings removed from ovigerous female Lepeophtheirus salmonis were collected and cultured until infective copepodids were produced. Eight bottles containing approximately 330-350 copepodids were each randomly allocated to a treatment tank (to provide an average of 22 lice per fish).
In preparation for the challenge, water flows in the tanks were stopped and light levels reduced. The lice were then added to each tank and the tanks maintained in total darkness for 6 hours after which light levels were raised and the water flow resumed.
The fish were challenged with sea lice for either one week or for six weeks.
One week after the sea lice challenge, fish in three of the tanks were treated with either 10 ppm w/v, 30 ppm w/v or 50 ppm w/v imidacloprid. One of the tanks was treated with 0.03% DMSO and another tank sham treated with sea water as controls.
For each treatment tank, the appropriate amount of imidacloprid (see Table 1) was dissolved in 100 ml of DMSO and mixed with approximately 900 ml of sea water from the experimental tank to obtain a treatment solution. The water flow on the experimental tanks was disabled and the treatment solution was then added.
Fish were exposed for 60 minutes in static water with full aeration and observed during the exposure period. At the end of the exposure period the water was rapidly drained to approximately ⅓ volume, before the flows were resumed in the tanks.
Six weeks after the fish were challenged with sea lice, the fish in the three remaining treatment tanks were treated with either 10 ppm w/v, 30 ppm w/v or 50 ppm w/v imidacloprid. The treatment was carried out in the same way as for the treatment tanks one week post challenge (see 1.2.1).
Eight weeks after the fish were challenged with sea lice, the study was terminated. Fish were over anaesthetised in MS222 (tricaine methanesulfonate) and pithed using an Iki Jime tool.
The length and weight of each fish and external symptoms were recorded. All lice were removed from each fish and note made of sex and stage of development. The lice were stored in ethanol and sex and stage confirmed using stereo microscope.
The data is expressed as prevalence and abundance. Prevalence is defined as the number of hosts infected with one of more individuals of a parasite species divided by the number of hosts examined (including infected and uninfected hosts) and expressed as a percentage.

L. salmonis = experiment: Field well boat treatment, pre- vs post-treatment sea lice counts (Example 4); assay type: in vivo; conditions: 20 ppm, 60 minutes, 30 fish per pen, within 24 hours after treatment, pens A-D
Description: (§1) The effectiveness of imidacloprid against pre-adult and adult stages of L. salmonis and Caligus sp. infections on farmed Atlantic salmon was investigated by performing pre- and post-treatment sea lice counts on salmon undergoing a treatment with imidacloprid. This trial was conducted at a commercial salmon farm in Norway. The salmon were pumped onto a well boat and were exposed to 20 ppm imidacloprid for 60 minutes. The average weight of the salmon was 3.5 kg and the average number of salmon per pen was 180,000. 30 fish per pen were assessed for L. salmonis and Caligus sp., and the number of each L. salmonis life stage found was recorded. This was performed within 24 hours prior to treatment, and within 24 hours after treatment.
These assessments were made on four pens of salmon in total. Prior to treatment, fish were crowded within the pen to enable them to be pumped into the well boat, which is where the pre-treatment sea lice assessments were conducted. The post-treatment sea lice assessments were made by removing fish from the outflow pipe on the well boat.
At all time points, 3 fish were removed and placed into an anaesthetic bath. This was repeated 10 times until 30 fish had been assessed.
(§2) The numbers of sea lice observed per fish for this trial for each of the four tested pens according to sea lice life cycle state, pre- or post-administration of active are presented in Table 5.

farmed Atlantic salmon = experiment: Observation of fish during field well boat treatment (Example 4); assay type: in vivo; conditions: 20 ppm, 60 minutes
Description: as §1, §2

[2] = tested on: pre-adult and adult sea lice; experiment: Timescale of effect on sea lice on killed salmon suspended in treatment water (Example 5)
Description: To determine the timescale of the effect of imidacloprid, salmon infected with pre-adult and adult sea lice were removed from a stock tank and killed using a sharp blow to the head.
For fish exposed to 0 ppm imidacloprid (negative controls), observations were made for 60 minutes. […] Three fish per treatment group were tested.
Observations on the time at which lice left the host, and the sex and stage of the sea louse was noted. Any lice that left the host were transferred to clean sea water immediately. Furthermore, any lice remaining on the host at the end of the exposure period were removed from the host and transferred to clean sea water.
Lice were observed both shortly after and approximately 2 hours after the end of the exposure period.
The ratio of male to female sea lice was around 50:50. The water temperature was around 12° C.

Lepeophtheirus salmonis [3] = conditions: 20 ppm (nitenpyram 19 ppm); for percentage responsiveness for sea lice recovered from fish at the end of the treatment period: 24 h post-treatment; for percentage responsiveness of lice recovered from tank at treatment end at 24 hours post-treatment: lice knocked off fish
Description: Lice were monitored continuously for the duration of the exposure and behavioural observations noted, including detachment of lice from fish. At the end of exposure lice were either removed from the tank or fish, placed into small vented plastic screw-top containers (125 mL, LDPE, 25 mm hole drilled into lid and secured with 200 μm mesh), and transferred to a clean tank supplied with filtered sea water and held there for 24 h. Lice which had detached from fish were kept separate from those that had not detached.
24 h post-treatment lice were removed from the screw-top containers to check if they were alive and, if so, if they were responsive. Categories were defined as follows: alive—movement detected; responsive—alive and actively avoids stimulation in a coordinated manner; dead—no movement detected.
Lice defined as responsive could potentially re-attach to a fish. After assessment lice were transferred to 70% alcohol in case determination of instar and sex was required.

O=[N+]([O-])NC1=NCCN1Cc1ccc(Cl)nc1 [imidacloprid]
Overall lice abundances compared with the DMSO control (Lepeophtheirus salmonis [1]; 10, 30 or 50 ppm w/v, treated one week post challenge): No significant differences | Time after addition at which no fish were visibly infected with lice (Lepeophtheirus salmonis [1]; 30 ppm w/v, treated 6 weeks post challenge): 59 min | Lesions associated with feeding and attachment of lice (Lepeophtheirus salmonis [1]; 30 ppm w/v, two days post-treatment): almost completely resolved | Time after addition at which no lice were visible on the fish (Lepeophtheirus salmonis [1]; 50 ppm w/v, treated 6 weeks post challenge): 81 min | Lesions associated with feeding and attachment of lice (Lepeophtheirus salmonis [1]; 50 ppm w/v, two days post treatment): almost completely resolved | Post-treatment sea lice count, Adult Female (L. salmonis): 0.0 sea lice per fish | Post-treatment sea lice count, Adult Male (L. salmonis): 0.0 sea lice per fish | Post-treatment sea lice count, Gravid Female (L. salmonis): 0.0 sea lice per fish | Post-treatment sea lice count, Pre-Adult Female (L. salmonis): 0.0 sea lice per fish | Post-treatment sea lice count, Pre-Adult Male (L. salmonis): 0.0 sea lice per fish | Post-treatment sea lice count, Total (L. salmonis): 0.0 sea lice per fish | Fish behaviour observed throughout treatment (farmed Atlantic salmon): no adverse behaviours seen | Lice considered dead at 30 minutes post-exposure ([2]; 20 mg/L, of 49 lice exposed): two | Lice considered dead at 2 hours p.e. ([2]; 50 ppm): 14 | Lice considered dead at 30 minutes ([2]; 50 ppm, of 21 lice exposed): four | Lice considered dead at 2 hours p.e. ([2]; 100 ppm): 17/28 | Lice considered dead at the end of the exposure period ([2]; 100 ppm, of 28 lice exposed): four | Lice considered dead 2 hours post-exposure ([2]; 200 ppm, of 26 lice exposed): Six | Lice considered dead at the end of the exposure period ([2]; 200 ppm, of 26 lice exposed): four | Lice considered dead 30 minutes p.e. ([2]; 500 ppm): Six out of 20 | Lice considered dead at 2 hours p.e. ([2]; 500 ppm): 15/20 | Lice that left the host within the first 9 minutes ([2]; 500 ppm, dead host, around 12° C.): around 70% | Lice that left the host within the first 15 minutes ([2]; between 20 and 200 ppm, dead host, around 12° C.): around 50% | percentage responsiveness for sea lice recovered from fish at the end of the treatment period (Lepeophtheirus salmonis [3]; exposure 5 min): 100% | percentage responsiveness for sea lice recovered from fish at the end of the treatment period (Lepeophtheirus salmonis [3]; exposure 10 min): 100% | percentage responsiveness of lice recovered from tank at treatment end at 24 hours post-treatment (Lepeophtheirus salmonis [3]; exposure 10 min): 100% | percentage responsiveness for sea lice recovered from fish at the end of the treatment period (Lepeophtheirus salmonis [3]; exposure 15 min): 45% | percentage responsiveness of lice recovered from tank at treatment end at 24 hours post-treatment (Lepeophtheirus salmonis [3]; exposure 15 min): 33% | percentage responsiveness for sea lice recovered from fish at the end of the treatment period (Lepeophtheirus salmonis [3]; exposure 30 min): 50% | percentage responsiveness of lice recovered from tank at treatment end at 24 hours post-treatment (Lepeophtheirus salmonis [3]; exposure 30 min): 10% | percentage responsiveness for sea lice recovered from fish at the end of the treatment period (Lepeophtheirus salmonis [3]; exposure 60 min): no lice responsive | percentage responsiveness for sea lice recovered from fish at the end of the treatment period (Lepeophtheirus salmonis [3]; exposure 60 min, listed as Imidacloprid): 0% | percentage responsiveness of lice recovered from tank at treatment end at 24 hours post-treatment (Lepeophtheirus salmonis [3]; exposure 60 min): 0%
